This note sets out measurements from ChEMBL document CHEMBL1201862, “PubChem BioAssay data set” (2004).

For orientation: AC50 means the concentration at which the activity in the assay is half-maximal. In general, IC50 refers to the midpoint of a concentration-inhibition curve.

Calls of active or inactive are those of the source. Where only a bound is given, the exact number is not on record here.

The nature of test [1]: acridine orange displacement from DNA – biochemical, fluorescence polarization, cherry-pick, artefact control for RAD54 inhibitor project, dose response (AID 651673). The format is functional. Background: In fluorescence polarisation assays a small probe gives low polarisation when free and higher when bound to something large.
For test [2], the target named is T1, DNA repair protein RAD52 homolog (Homo sapiens, UniProt P43351).
T1 sequence (P43351 whole entry): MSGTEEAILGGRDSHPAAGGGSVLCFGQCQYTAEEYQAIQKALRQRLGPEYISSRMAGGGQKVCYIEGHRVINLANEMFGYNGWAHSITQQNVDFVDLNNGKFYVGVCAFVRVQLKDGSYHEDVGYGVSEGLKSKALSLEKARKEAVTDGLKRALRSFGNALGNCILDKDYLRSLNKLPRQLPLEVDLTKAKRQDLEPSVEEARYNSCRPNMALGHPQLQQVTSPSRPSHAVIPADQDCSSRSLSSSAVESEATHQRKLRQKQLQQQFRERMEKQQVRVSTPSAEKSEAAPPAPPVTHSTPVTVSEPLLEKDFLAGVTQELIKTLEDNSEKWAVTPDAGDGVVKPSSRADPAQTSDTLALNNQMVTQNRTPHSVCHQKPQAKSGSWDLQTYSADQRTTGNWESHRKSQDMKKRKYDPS
The format is functional, biochemical.

Test [3] addresses T2, DNA repair and recombination protein RAD54-like (Homo sapiens, UniProt Q92698).
T2 sequence (Q92698 whole entry): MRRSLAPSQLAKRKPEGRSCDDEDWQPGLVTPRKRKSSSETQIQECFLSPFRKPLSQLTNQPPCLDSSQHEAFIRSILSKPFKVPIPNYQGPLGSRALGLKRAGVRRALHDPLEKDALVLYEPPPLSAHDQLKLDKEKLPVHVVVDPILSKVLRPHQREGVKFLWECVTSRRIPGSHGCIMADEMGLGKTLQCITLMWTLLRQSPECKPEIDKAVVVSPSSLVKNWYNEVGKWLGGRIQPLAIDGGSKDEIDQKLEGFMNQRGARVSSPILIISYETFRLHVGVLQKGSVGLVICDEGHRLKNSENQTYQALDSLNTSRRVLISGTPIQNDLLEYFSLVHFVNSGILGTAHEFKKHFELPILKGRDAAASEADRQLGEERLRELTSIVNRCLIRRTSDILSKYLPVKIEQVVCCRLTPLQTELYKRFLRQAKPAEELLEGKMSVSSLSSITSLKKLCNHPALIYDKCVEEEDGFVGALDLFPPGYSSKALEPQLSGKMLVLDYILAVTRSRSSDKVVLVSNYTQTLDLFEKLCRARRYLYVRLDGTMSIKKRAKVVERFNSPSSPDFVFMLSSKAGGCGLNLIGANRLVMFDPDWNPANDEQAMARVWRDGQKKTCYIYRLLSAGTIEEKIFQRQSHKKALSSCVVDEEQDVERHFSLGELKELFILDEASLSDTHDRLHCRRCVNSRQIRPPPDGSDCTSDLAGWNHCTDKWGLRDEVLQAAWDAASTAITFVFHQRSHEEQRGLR
Description: RAD54 Holliday junction migration blockers – biochemical, fluorescence, cherry-picked samples, dose series, confirmation (AID 651657). Format: functional.

For test [4], the target named is Protein Wnt-3a (Mus musculus, UniProt P27467). Description: SAR analysis of small molecule antagonists of Gli-SUFU in a Wnt3a luminescent reporter assay. Format: functional. (A reporter such as luciferase makes a cellular process visible.)
The subject of test [5] is HEK293. Description: viability loss in HEK293T cells – cell-based, ATP luminescence, cherry-pick samples, cytotoxicity control, dose response (AID 687005).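 Note: cells exposed to compound for 48 hours.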 Format: functional. Particulars: Homo sapiens.
Test [6] is described as follows: HEK293 Cytotoxicity Assay Measured in Cell-Based System Using Plate Reader - 7071-01_Inhibitor_Dose_CherryPick_Activity_Set2. Format: functional.
Test [7] has as its system HeLa. In words: viability loss in HeLa cells – cell-based, ATP luminescence, cherry-pick samples, cytotoxicity control, dose response (AID 687004). Format: functional. To be noted: Homo sapiens.
Test [8] concerns the target Paired box protein Pax-8 (Homo sapiens, UniProt Q06710). Description: PAX8 transcriptional activity inhibition in RMG-I – RMG-I cells, luciferase, cherry-pick, dose response (AID 687027).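 Note: luciferase reporter driven by Pax8 target thyroperoxidase promoter measured by SteadyGlo luminescence.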 The format is functional, cell-based.
A short description of test [9]: OVCAR8 cell viability loss – plate reader, dry powder samples, PAX8 project, dose response (AID 743197). Format: functional, cell-based. Particulars: OVCAR-8.
The nature of test [10]: toxicity toward immortalized ovarian surface epithelium – cell-based, plate reader, dry powder samples, cytotoxicity control for PAX8 inhibitor project, dose response (AID 743045). Format: functional.
Test [11] can be described thus: A2780 cell killing – plate reader, dry powder samples, cytotoxicity control, dose response (AID 743046). Format: functional, cell-based.
Test [12] in a line: OVCAR-3 cell viability loss – plate reader, dry powder samples, PAX8 inhibitor project, dose response (AID 743044). Format: functional, cell-based.
A short description of test [13]: CMV-driven luciferase expression suppression in HEK293 – cell-based, luminescence, dry powder, counter-screen for Pax8 inhibitor project, dose response (AID 743020). The format is functional.
A short description of test [14]: general cell-killing toxicity readout – plate reader, dry powder samples, cytotoxicity control for PAX8 inhibitor project, dose response (AID 743021). The format is functional, cell-based.
For test [15], the target named is T3, Sentrin-specific protease 8 (Homo sapiens, UniProt Q96LD8).
T3 sequence (Q96LD8 whole entry): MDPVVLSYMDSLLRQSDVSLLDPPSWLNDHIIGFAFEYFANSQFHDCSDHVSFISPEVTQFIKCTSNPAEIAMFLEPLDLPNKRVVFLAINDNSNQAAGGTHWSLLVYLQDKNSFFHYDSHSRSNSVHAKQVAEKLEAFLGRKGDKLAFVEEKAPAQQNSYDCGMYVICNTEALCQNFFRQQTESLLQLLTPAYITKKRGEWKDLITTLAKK
Format: functional.

The target of test [16] is T3, Sentrin-specific protease 8. Format: functional. The source holds these as a separate data set.
The target in test [17] is T4, Caspase-3 (Homo sapiens, UniProt P42574).
T4 sequence (P42574 whole entry): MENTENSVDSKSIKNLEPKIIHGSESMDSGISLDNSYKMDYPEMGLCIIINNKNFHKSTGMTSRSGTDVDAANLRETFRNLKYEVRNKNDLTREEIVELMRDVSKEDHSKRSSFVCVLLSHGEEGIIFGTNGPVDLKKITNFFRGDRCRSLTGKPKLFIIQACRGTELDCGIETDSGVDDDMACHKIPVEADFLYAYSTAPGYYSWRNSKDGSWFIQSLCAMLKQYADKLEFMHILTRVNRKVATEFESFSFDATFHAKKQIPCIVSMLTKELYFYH
Description: Dose-response confirmation of uHTS inhibitor hits of Sentrin-Specific Protease 8 in a Caspase-3 Fluorescence assay. The format is functional.

For test [18], the system named is Vero. In words: viability loss in Vero cells – cell-based, plate reader, cherry-pick samples, cytotoxicity control, dose response (AID 687020). The format is functional. To be noted: Chlorocebus sabaeus.
The test system of test [19] is Cryptococcus neoformans. Description: PubChem AID 686997. Format: functional, organism-based.

Sequence of Protein Wnt-3a (P27467 whole entry): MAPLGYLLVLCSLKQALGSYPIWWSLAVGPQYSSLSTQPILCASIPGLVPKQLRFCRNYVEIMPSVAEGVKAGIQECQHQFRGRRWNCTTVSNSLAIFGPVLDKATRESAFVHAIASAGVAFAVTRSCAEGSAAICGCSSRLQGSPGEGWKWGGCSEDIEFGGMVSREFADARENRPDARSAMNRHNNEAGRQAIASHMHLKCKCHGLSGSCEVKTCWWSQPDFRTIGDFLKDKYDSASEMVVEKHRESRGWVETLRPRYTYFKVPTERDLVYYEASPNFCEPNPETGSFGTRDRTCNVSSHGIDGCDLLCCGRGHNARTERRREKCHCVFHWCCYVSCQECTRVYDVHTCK
Sequence of Paired box protein Pax-8 (Q06710 whole entry): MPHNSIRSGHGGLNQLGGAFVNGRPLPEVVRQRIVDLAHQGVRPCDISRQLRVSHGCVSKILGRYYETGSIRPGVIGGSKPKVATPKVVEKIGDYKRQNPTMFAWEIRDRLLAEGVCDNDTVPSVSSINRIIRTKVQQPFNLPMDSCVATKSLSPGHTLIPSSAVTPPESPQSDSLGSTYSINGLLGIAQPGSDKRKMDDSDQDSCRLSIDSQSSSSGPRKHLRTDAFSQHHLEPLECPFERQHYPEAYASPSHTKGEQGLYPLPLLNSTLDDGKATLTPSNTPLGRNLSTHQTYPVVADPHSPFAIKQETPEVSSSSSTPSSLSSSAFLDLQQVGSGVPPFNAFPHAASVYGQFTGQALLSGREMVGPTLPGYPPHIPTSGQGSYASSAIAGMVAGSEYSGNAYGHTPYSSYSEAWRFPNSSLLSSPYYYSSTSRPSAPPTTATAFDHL

For the molecule `c1cncc(Nc2c3ccccc3nc3ccccc23)c1`, the AC50 was 49.5 µM (active) in test [1], 7.23 µM (active) in test [2] and 12.8 µM (active) in [3].
`CC(C)CNc1cc(NC(=O)c2cccc(F)c2)ncn1`: the IC50 in [4] was > 21.8 µM (inactive).
On to `O=S(=O)(c1ccc(F)cc1)N1C[C@@H]2[C@H](c3ccccc31)[C@@H](CO)N2Cc1ccccc1Cl`, for which the concentration at half-maximal activity (AC50) is 18.9 µM (active) in test [5], 18.9 µM (active) in [6] and > 47 µM (inactive) in test [7].
Turning to `C[C@@H]1CN([C@H](C)CO)C(=O)c2cc(NC(=O)Nc3ccccc3)ccc2O[C@@H](C)CCCCO[C@@H]1CN(C)Cc1ccc(Cl)c(Cl)c1`, the AC50 is 4.45 µM (active) in test [8]; 29.6 µM (active) in test [9]; 44.5 µM (active) in [10]; 14.9 µM (active) in test [11]; 18.4 µM (active) in test [12]; 43.4 µM (active) in test [13]. In addition, the AC50 in [14] was 52.3 µM (active).
On to `COc1ccc(NC(=O)[C@@H]2[C@@H]3C(=O)N(C4CCCCC4)C(=O)[C@@H]3C3c4ccccc4C=CN32)cc1` (stereo partly specified), for which the IC50 is 4.79 µM (active) in test [15], 16.3 µM (active) in [16] and 10.8 µM (active) in [17].
On to `COc1cc(C)ccc1OCc1cc(C(=O)NCCN2CCCC(O)C2)no1` (stereo unspecified), for which the concentration at half-maximal activity (AC50) in [18] was 30 µM (active).
For `COC(=O)C1=C(C)N(Cc2ccc(F)cc2)C(=S)NC1c1cccc(Br)c1` (stereo unspecified), the results for the half-maximal activity concentration (AC50) in test [19], in [5] and in test [6] were 36.7 µM (active), 6.17 µM (active) and 6.17 µM (active), respectively.
